Source: patent US8968807B1, “Use of ethylene diamine metal complexes to deliver highly absorbable metals for animal nutrition” (Zinpro Corporation, priority 2013, dated 2015)

Key:
[1] = Sheep bolus test, manganese blood uptake; format: in vivo; conditions: 30 hour
Description: Tests like in Example 19 and 21 were run with MnSO4 in comparison with Mn-EDA of Example 10. At all points Manganese blood uptake of the sheep was at lower levels than other tested ligands. This may be a characteristic of Mn itself.

[2] = sheep, bolus; versus FeSO4; most notably at 30 hours; FIG. 3
Protocol: In the following examples sheep were given a bolus injection like in Example 19 and then blood uptake was measured at various intervals.
The Fe-EDA (Example 9) and the Fe-EDA (Example 16) were tested for iron uptake in the blood in comparison with the bolus injection of FeSO4.

Cobb male broilers = experiment: Poultry trial with Cobb male broilers; format: in vivo; conditions: Cobb male broilers from 1 day old; 80 ppm supplemental Zn; Zn-EDA group = 40 ppm Zn from ZnSO4 + 40 ppm Zn from Zn-EDA
Description: Animals were Cobb male broilers. The experiment was started with 1 day old animals. ZnSO4 was used as a comparative example using 80 ppm zinc from ZnSO4. Zn-EDA replaced 40 ppm of the zinc so there was 40 ppm Zn from ZnSO4 and 40 ppm Zn from Zn-EDA and compared to 80 ppm Zn from ZnSO4. Actual broiler integrator diets were used. They contain 500 ftu of phytase and an NSP enzyme (nonstarch polysaccride degrading enzyme). The plane of nutrition is targeted to be at AgriStat's 75th percentile. […] There were 12 replicates per treatment and 21 birds per replicate.

## 1,2 Diaminoethane dihydrochloride—manganese(II) chloride [Example 10]
[1]
  Manganese blood uptake: 33

## Cl.Cl.NCCN.[Cl][Fe][Cl] [Example 9, 1,2 Diaminoethane dihydrochloride—iron(II) chloride]
[2]
  iron uptake in the blood: better at every interval than inorganic iron sulfate

## NCCN.[Cl][Fe][Cl] [Example 16, 1,2 Diaminoethane—iron(II) chloride]
[2]
  iron uptake in the blood: better at every interval than inorganic iron sulfate

## O=S(=O)([O-])[O-].[Mn+2] [MnSO4]
[1]
  Manganese blood uptake: 24

## O=S(=O)([O-])[O-].[Zn+2] [ZnSulfate, ZnSO4]
Cobb male broilers
  Body Wt.: 2.212 kg
  Feed Conversion: 1.531
  Mortality: 4.71%
